Reference: patent US12077503B2, “Substituted cyclic amides and their use as herbicides” (FMC CORPORATION, priority 2015, dated 2024)

Experiments:
Format in all cases: in vivo
[1] = test system: barnyardgrass (Echinochloa crus-galli); experiment: Test G Pre-Emergence Protocol; conditions: Echinochloa crus-galli, pre-emergence, 312 h, evaluated after 13 days; for pest or weed control at 15.625 g/ha: 15.625 g ai/ha; for pest or weed control at 15.625 g/ha / pest or weed control at 250 g/ha: read-out: Barnyardgrass damage rating (100=total damage to plant; 0=no damage to plant); for pest or weed control at 62.5 g/ha: 62.5 g ai/ha, 100=total damage to plant, 0=no damage to plant, read-out: Barnyardgrass damage rating; for pest or weed control at 250 g/ha: 250 g ai/ha
In short: (§1)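 Under a 24/16° C day/night regime with 14 h light and 65% humidity, sown pots were sprayed after one day with compound (15.625, 62.5 or 250 g/ha; 50:50 acetone/water, 0.5% Tween 20). Damage was assessed visually 13 days later, 0 to 100.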

corn (Zea mays) [2] = experiment: Test G Pre-Emergence Protocol; conditions: Zea mays, pre-emergence, 312 h, evaluated after 13 days; for plant injury at 15.625 g/ha: 15.625 g ai/ha; for plant injury at 15.625 g/ha / plant injury at 250 g/ha: read-out: Corn damage rating (100=total damage to plant; 0=no damage to plant); for plant injury at 62.5 g/ha: 62.5 g ai/ha, 100=total damage to plant, 0=no damage to plant, read-out: Corn damage rating; for plant injury at 250 g/ha: 250 g ai/ha
In short: as §1

[3] = test system: giant foxtail (Setaria faberi); experiment: Test G Pre-Emergence Protocol; conditions: Setaria faberi, pre-emergence, 312 h, evaluated after 13 days; for pest or weed control at 15.625 g/ha: 15.625 g ai/ha; for pest or weed control at 15.625 g/ha / pest or weed control at 250 g/ha: read-out: Foxtail, Giant damage rating (100=total damage to plant; 0=no damage to plant); for pest or weed control at 62.5 g/ha: 62.5 g ai/ha, 100=total damage to plant, 0=no damage to plant, read-out: Foxtail, Giant damage rating; for pest or weed control at 250 g/ha: 250 g ai/ha
In short: as §1

[4] = test system: ivy-leaved morning glory (Ipomoea hederacea); experiment: Test G Pre-Emergence Protocol; conditions: Ipomoea, pre-emergence, 312 h, evaluated after 13 days; for pest or weed control at 15.625 g/ha: 15.625 g ai/ha; for pest or weed control at 15.625 g/ha / pest or weed control at 250 g/ha: read-out: Morningglory, Ivy-leaved damage rating (100=total damage to plant; 0=no damage to plant); for pest or weed control at 62.5 g/ha: 62.5 g ai/ha, 100=total damage to plant, 0=no damage to plant, read-out: Morningglory, Ivy-leaved damage rating; for pest or weed control at 250 g/ha: 250 g ai/ha
In short: as §1

[5] = test system: redroot pigweed (Amaranthus retroflexus); experiment: Test G Pre-Emergence Protocol; conditions: Amaranthus retroflexus, pre-emergence, 312 h, evaluated after 13 days; for pest or weed control at 15.625 g/ha: 15.625 g ai/ha; for pest or weed control at 15.625 g/ha / pest or weed control at 250 g/ha: read-out: Pigweed, Redroot damage rating (100=total damage to plant; 0=no damage to plant); for pest or weed control at 62.5 g/ha: 62.5 g ai/ha, 100=total damage to plant, 0=no damage to plant, read-out: Pigweed, Redroot damage rating; for pest or weed control at 250 g/ha: 250 g ai/ha
In short: as §1

[6] = test system: velvetleaf (Abutilon theophrasti); experiment: Test G Pre-Emergence Protocol; conditions: Abutilon theophrasti, pre-emergence, 312 h, evaluated after 13 days; for pest or weed control at 15.625 g/ha: 15.625 g ai/ha; for pest or weed control at 15.625 g/ha / pest or weed control at 250 g/ha: read-out: Velvetleaf damage rating (100=total damage to plant; 0=no damage to plant); for pest or weed control at 62.5 g/ha: 62.5 g ai/ha, 100=total damage to plant, 0=no damage to plant, read-out: Velvetleaf damage rating; for pest or weed control at 250 g/ha: 250 g ai/ha
In short: as §1

[7] = test system: barnyardgrass (Echinochloa crus-galli); experiment: Test G Post-Emergence Protocol; conditions: Echinochloa crus-galli, post-emergence, 312 h, read-out: Barnyardgrass damage rating; for pest or weed control at 15.625 g/ha: 15.625 g ai/ha, evaluated after 13 days (100=total damage to plant; 0=no damage to plant); for pest or weed control at 62.5 g/ha: 62.5 g ai/ha; for pest or weed control at 62.5 g/ha / pest or weed control at 250 g/ha: evaluated after 13 days, 100=total damage to plant, 0=no damage to plant; for pest or weed control at 250 g/ha: 250 g ai/ha
In short: (§2)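 Seedlings grown 8 days in soil in a glasshouse (24/16 °C day/night, 14 h light, 65% humidity) were sprayed post-emergence with compound in acetone/water 50:50 plus 0.5% Tween 20 at 15.625, 62.5 or 250 g/ha. Damage was scored after 13 days on a 0–100 scale (100 = total damage).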

corn (Zea mays) [8] = experiment: Test G Post-Emergence Protocol; conditions: Zea mays, post-emergence, 312 h, read-out: Corn damage rating; for plant injury at 15.625 g/ha: 15.625 g ai/ha, evaluated after 13 days (100=total damage to plant; 0=no damage to plant); for plant injury at 62.5 g/ha: 62.5 g ai/ha; for plant injury at 62.5 g/ha / plant injury at 250 g/ha: evaluated after 13 days, 100=total damage to plant, 0=no damage to plant; for plant injury at 250 g/ha: 250 g ai/ha
In short: as §2

[9] = test system: giant foxtail (Setaria faberi); experiment: Test G Post-Emergence Protocol; conditions: Setaria faberi, post-emergence, 312 h, read-out: Foxtail, Giant damage rating; for pest or weed control at 15.625 g/ha: 15.625 g ai/ha, evaluated after 13 days (100=total damage to plant; 0=no damage to plant); for pest or weed control at 62.5 g/ha: 62.5 g ai/ha; for pest or weed control at 62.5 g/ha / pest or weed control at 250 g/ha: evaluated after 13 days, 100=total damage to plant, 0=no damage to plant; for pest or weed control at 250 g/ha: 250 g ai/ha
In short: as §2

[10] = test system: ivy-leaved morning glory (Ipomoea hederacea); experiment: Test G Post-Emergence Protocol; conditions: Ipomoea, post-emergence, 312 h, read-out: Morningglory, Ivy-leaved damage rating; for pest or weed control at 15.625 g/ha: 15.625 g ai/ha, evaluated after 13 days (100=total damage to plant; 0=no damage to plant); for pest or weed control at 62.5 g/ha: 62.5 g ai/ha; for pest or weed control at 62.5 g/ha / pest or weed control at 250 g/ha: evaluated after 13 days, 100=total damage to plant, 0=no damage to plant; for pest or weed control at 250 g/ha: 250 g ai/ha
In short: as §2

[11] = test system: redroot pigweed (Amaranthus retroflexus); experiment: Test G Post-Emergence Protocol; conditions: Amaranthus retroflexus, post-emergence, 312 h, read-out: Pigweed, Redroot damage rating; for pest or weed control at 15.625 g/ha: 15.625 g ai/ha, evaluated after 13 days (100=total damage to plant; 0=no damage to plant); for pest or weed control at 62.5 g/ha: 62.5 g ai/ha; for pest or weed control at 62.5 g/ha / pest or weed control at 250 g/ha: evaluated after 13 days, 100=total damage to plant, 0=no damage to plant; for pest or weed control at 250 g/ha: 250 g ai/ha
In short: as §2

[12] = test system: velvetleaf (Abutilon theophrasti); experiment: Test G Post-Emergence Protocol; conditions: Abutilon theophrasti, post-emergence, 312 h, read-out: Velvetleaf damage rating; for pest or weed control at 15.625 g/ha: 15.625 g ai/ha, evaluated after 13 days (100=total damage to plant; 0=no damage to plant); for pest or weed control at 62.5 g/ha: 62.5 g ai/ha; for pest or weed control at 62.5 g/ha / pest or weed control at 250 g/ha: evaluated after 13 days, 100=total damage to plant, 0=no damage to plant; for pest or weed control at 250 g/ha: 250 g ai/ha
In short: as §2

Row | SMILES | pest or weed control at 15.625 g/ha [1] | pest or weed control at 62.5 g/ha [1] | pest or weed control at 250 g/ha [1] | plant injury at 15.625 g/ha (corn (Zea mays) [2]) | plant injury at 62.5 g/ha (corn (Zea mays) [2]) | plant injury at 250 g/ha (corn (Zea mays) [2]) | pest or weed control at 15.625 g/ha [3] | pest or weed control at 62.5 g/ha [3] | pest or weed control at 250 g/ha [3] | pest or weed control at 15.625 g/ha [4] | pest or weed control at 62.5 g/ha [4] | pest or weed control at 250 g/ha [4] | pest or weed control at 15.625 g/ha [5] | pest or weed control at 62.5 g/ha [5] | pest or weed control at 250 g/ha [5] | pest or weed control at 15.625 g/ha [6] | pest or weed control at 62.5 g/ha [6] | pest or weed control at 250 g/ha [6] | pest or weed control at 15.625 g/ha [7] | pest or weed control at 62.5 g/ha [7] | further results
1 | Cc1cccc(NC(=O)[C@H]2C(=O)N(C)C[C@@H]2c2ccc(C(F)(F)F)cc2)[n+]1[O-] (racemic) [Compound 1805] | 0% | 0% | 0% | 0% | 0% | 0% | 0% | 0% | 10% | 0% | 0% | 0% | 20% | 10% | 30% | 0% | 20% | 20% | 0% | 0% | pest or weed control at 250 g/ha [7]: 0%; plant injury at 15.625 g/ha (corn (Zea mays) [8]): 0%; plant injury at 62.5 g/ha (corn (Zea mays) [8]): 0%; plant injury at 250 g/ha (corn (Zea mays) [8]): 0%; pest or weed control at 15.625 g/ha [9]: 0%; pest or weed control at 62.5 g/ha [9]: 30%; pest or weed control at 250 g/ha [9]: 40%; pest or weed control at 15.625 g/ha [10]: 0%; pest or weed control at 62.5 g/ha [10]: 30%; pest or weed control at 250 g/ha [10]: 30%; pest or weed control at 15.625 g/ha [11]: 10%; pest or weed control at 62.5 g/ha [11]: 60%; pest or weed control at 250 g/ha [11]: 40%; pest or weed control at 15.625 g/ha [12]: 0%; pest or weed control at 62.5 g/ha [12]: 20%; pest or weed control at 250 g/ha [12]: 30%
2 | CN1C[C@H](c2cccc(C(F)(F)F)c2)[C@@H](C(=O)Nc2cc(O)ccc2F)C1=O (racemic) [Compound 1807] | 0% | 0% | 0% | 0% | 0% | 0% | 0% | 0% | 0% | 0% | 0% | 0% | 0% | 0% | 0% | 0% | 0% | 0% | 0% | 0% | pest or weed control at 250 g/ha [7]: 0%; plant injury at 15.625 g/ha (corn (Zea mays) [8]): 0%; plant injury at 62.5 g/ha (corn (Zea mays) [8]): 0%; plant injury at 250 g/ha (corn (Zea mays) [8]): 0%; pest or weed control at 15.625 g/ha [9]: 0%; pest or weed control at 62.5 g/ha [9]: 0%; pest or weed control at 250 g/ha [9]: 0%; pest or weed control at 15.625 g/ha [10]: 0%; pest or weed control at 62.5 g/ha [10]: 0%; pest or weed control at 250 g/ha [10]: 0%; pest or weed control at 15.625 g/ha [11]: 0%; pest or weed control at 62.5 g/ha [11]: 0%; pest or weed control at 250 g/ha [11]: 0%; pest or weed control at 15.625 g/ha [12]: 0%; pest or weed control at 62.5 g/ha [12]: 0%; pest or weed control at 250 g/ha [12]: 0%
3 | CN1C[C@H](c2cccc(C(F)(F)F)c2)[C@@H](C(=O)Nc2c(O)cccc2F)C1=O (racemic) [Compound 1808] | 0% | 0% | 40% | 0% | 0% | 0% | 0% | 20% | 70% | 0% | 0% | 10% | 0% | 0% | 20% | 0% | 0% | 10% | 0% | 20% | pest or weed control at 250 g/ha [7]: 60%; plant injury at 15.625 g/ha (corn (Zea mays) [8]): 0%; plant injury at 62.5 g/ha (corn (Zea mays) [8]): 0%; plant injury at 250 g/ha (corn (Zea mays) [8]): 0%; pest or weed control at 15.625 g/ha [9]: 0%; pest or weed control at 62.5 g/ha [9]: 30%; pest or weed control at 250 g/ha [9]: 60%; pest or weed control at 15.625 g/ha [10]: 0%; pest or weed control at 62.5 g/ha [10]: 0%; pest or weed control at 250 g/ha [10]: 0%; pest or weed control at 15.625 g/ha [11]: 0%; pest or weed control at 62.5 g/ha [11]: 0%; pest or weed control at 250 g/ha [11]: 0%; pest or weed control at 15.625 g/ha [12]: 0%; pest or weed control at 62.5 g/ha [12]: 0%; pest or weed control at 250 g/ha [12]: 0%
